According to patent US12617779B2, “Self degradation-type CDK9 inhibitor prodrug and liposome encapsulating same” (Sumitomo Pharma Co., Ltd., priority 2021, dated 2026):

Assay: Evaluation of conversion rate to active form in buffer solution (Experimental Example 1)
Format: physicochemical
Description: For Examples 1 to 16 and Comparative Examples 1 to 14, the attrition rate of the test compound and the conversion rate of the test compound to Alvocidib in a buffer solution were calculated by the following method.
Examples 1 to 16 and Comparative Examples 1 to 14 were each left in buffer solutions adjusted to pH 5.0, 5.5, 6.0, 6.5, 7.0 and 7.4, respectively, at a concentration of 25 umol/L at 37° C. After 0, 0.5, 1, 2 and 3 hours, the residual rates of the compounds of Examples […] and the production rate of Alvocidib were determined by HPLC.
The buffer solutions used at each pH are as follows. • pH 5.0: 50 mM citrate buffer solution (pH 5.0) • pH 5.5: 50 mM citrate buffer solution (pH 5.5) • pH 6.0: 50 mM phosphate buffer solution (pH 6.0) • pH 6.5: 50 mM phosphate buffer solution (pH 6.5) • pH 7.0: 50 mM phosphate buffer solution (pH 7.0) • pH 7.4: 50 mM phosphate buffer solution (pH 7.4)
The measurement conditions for HPLC are as follows.

Production rate of Alvocidib (pH7.4, 0 hr): 1.0%
Residual rate (pH7.4, 0 hr): 92.9%
Conversion to Alvocidib at pH 7.4 (pH 7.4, 37° C., up to 3 hours): slowly converted to Alvocidib
Production rate of Alvocidib (pH7.4, 0.5 hr): 1.2%
Residual rate (pH7.4, 0.5 hr): 92.3%
Production rate of Alvocidib (pH7.4, 1 hr): 1.3%
Residual rate (pH7.4, 1 hr): 91.8%
Production rate of Alvocidib (pH7.4, 2 hr): 1.5%
Residual rate (pH7.4, 2 hr): 91.3%
Compound: CCCCCCC(=O)O[C@@H]1CN(C)CC[C@@H]1c1c(O)cc(O)c2c(=O)cc(-c3ccccc3Cl)oc12 [Comparative Example 11, reference compound]
